Reference: patent US11994513B2, “Diagnostic and prognostic methods for estrogen-induced cancers” (The University of Newcastle, priority 2018, dated 2024)

Key:
ALPPL2 protein = assay: Western blot of ALPPL2 protein in hormone-treated Ishikawa cells and organoids; assay type: cell-based, human; details: Ishikawa cells and organoids treated with E2 and/or P4, FIGS. 2D and 2E
Protocol: (§1) 5,000 Ishikawa cells/well were seeded in triplicate in 100 μL medium onto 96-well tissue culture plates coated with a thin layer of reduced growth factor basement membrane extract (Cultrex® RGF BME: Trevigen) and were allowed to form organoids. After 24 hours, the organoids were subjected to desired hormonal treatments: 10 nmol/L estrogen ((β-Estradiol, Sigma #E8875) and 100 nmol/L progesterone (Medroxyprogesterone 17-acetate, Sigma #M1629). The culture medium containing desired hormone concentration was changed on every 48 hours. On day 7, colony size was measured and images were photographed using JuLI™ Stage Real-Time Cell History Recorder (NanoEnTek) in an incubator at 37° C. humidified with 5% CO2. 72 hours post-treatment, cells were incubated with CellTiter-Glo® 3D Reagent (Promega) for 30 minutes at room temperature and luminescence signal was recorded using the FLUOstar OPTIMA (BMG Labtech). […]
Human endometrial cancer samples, mouse uterine tissue, and Ishikawa cells were lysed in ice-cold RIPA (radioimmunoprecipitation assay) buffer (50 mmol/L Tris-HCl pH 7.5, 150 mmol/L NaCl, 1% NP-40, 0.5% Sodium deoxycholate, 0.1% SDS) containing protease and phosphatase inhibitors (Sigma). […] The membrane was washed again in TBS-T, developed using a chemiluminescent substrate (Millipore) for detection of HRP and the protein bands were detected by chemiluminescence (Fujifilm LAS-4000). […]

mice uteri = assay: Hormone pellet treatment of ovariectomized mice: uterine histology and ALPPL2 immunohistochemistry; assay type: in vivo, C57BL/6 mice
Ishikawa organoids = assay: 3D organoid formation assay: colony size and proliferation (CellTiter-Glo 3D); assay type: cell-based, human
Protocol: The human endometrial adenocarcinoma cell line Ishikawa (Sigma #99040201) was cultured in MEM (HyClone) medium supplemented with 5% heat-inactivated FBS (Bovogen Biologicals), 2 mmol/L L-glutamine (HyClone), and antibiotics (50 U/mL penicillin, 50 mg/L streptomycin; Gibco) in a humidified atmosphere at 37° C. containing 5% CO2. Cell line authentication was done by short tandem repeat (STR) DNA profiling method and mycoplasma contamination in cells was routinely conducted using MycoAlert™ Plus Mycoplasma detection kit (Lonza). 5,000 Ishikawa cells/well were seeded in triplicate in 100 μL medium onto 96-well tissue culture plates coated with a thin layer of reduced growth factor basement membrane extract (Cultrex® RGF BME: Trevigen) and were allowed to form organoids. After 24 hours, the organoids were subjected to desired hormonal treatments: 10 nmol/L estrogen ((β-Estradiol, Sigma #E8875) and 100 nmol/L progesterone (Medroxyprogesterone 17-acetate, Sigma #M1629). The culture medium containing desired hormone concentration was changed on every 48 hours. On day 7, colony size was measured and images were photographed using JuLI™ Stage Real-Time Cell History Recorder (NanoEnTek) in an incubator at 37° C. humidified with 5% CO2. 72 hours post-treatment, cells were incubated with CellTiter-Glo® 3D Reagent (Promega) for 30 minutes at room temperature and luminescence signal was recorded using the FLUOstar OPTIMA (BMG Labtech). Ishikawa 3D organoids were fixed in 4% paraformaldehyde (Electron Microscopy Sciences, ProSciTech) for 20 minutes and processed for immunofluorescence, as described previously (Sahoo et al, Oncotarget, 2017, 8:71400-17).

ALPPL2 mRNA expression = assay: Quantitative real-time PCR of ALPPL2 mRNA in hormone-treated Ishikawa organoids; assay type: cell-based, human; details: FIG. 2C
Protocol: as §1
Total RNA was isolated from estrogen or progesterone treated mouse uterus and Ishikawa cells using RNeasy Mini kit (Qiagen) following manufacturer's instructions. […] Quantitative real-time PCR (Q-PCR) was performed using RT^2 SYBR Green ROX qPCR Mastermix (Qiagen) on a 7900 HT FAST Thermocycler (Applied Biosystems) through a pre-incubation step, and 40 amplification cycles (including denaturation, annealing and extension segments). […]

Molecule	ALPPL2 protein expression (western blot, total cell lysate) (ALPPL2 protein)	ALPPL2 expression in uterus (immunohistochemical analysis) (mice uteri; E2 pellet for 3 months, FIG. 3A)	endometrial hyperplasia (histological analysis) (mice uteri; E2 pellet for 3 months, compared to E2 and P4 treated uteri, data not shown)	proliferation of Ishikawa organoids (Ishikawa organoids; E2 10 nmol/L, 3D culture, 72 hours post-treatment, FIG. 2B)	size of Ishikawa organoids (Ishikawa organoids; E2 10 nmol/L, 3D culture, day 7, FIG. 2A)	ALPPL2 mRNA expression (ALPPL2 mRNA expression; E2 treated organoids, 10 nmol/L)	effect on E2-induced ALPPL2 expression in uterus (immunohistochemical analysis) (mice uteri; E2 and P4 pellets for 3 months, FIG. 3A)	mitogenic action of E2 on Ishikawa organoids (size and proliferation) (Ishikawa organoids; P4 100 nmol/L with E2 10 nmol/L, FIGS. 2A and 2B)	effect on E2-induced ALPPL2 mRNA upregulation (ALPPL2 mRNA expression; P4 100 nmol/L with E2 10 nmol/L)
β-Estradiol [E2]	Overexpression of ALPPL2	increase in ALPPL2 expression	increased endometrial hyperplasia	increased	increased	significantly upregulated	–	–	–
CC(=O)[C@H]1CC[C@H]2[C@@H]3CCC4=CC(=O)CC[C@]4(C)[C@H]3CC[C@]12C [P4, progesterone]	–	–	–	–	–	–	attenuated the effect of E2	counterbalanced	inhibited this effect
